From patent publication US20100316574A1, “Oncofetal Antigen/Immature Laminin Receptor Peptides for the Sensitization of Dendritic Cells for Cancer Therapy” (Quantum Immunologics, Inc., priority 2009, published 2010)
Entries after “also recorded” stand apart in the source; their conditions may differ.

Legend:
DU145 cells = assay: CellTiter-Blue cell viability assay; assay type: cell-based; details: for cell viability versus controls: overnight; for effect on cell viability: compared to peptide diluent control
Description: All cells were grown in RPMI 1640 with L-glutamine; 100 I.U. Penicillin, 100 μg/ml Streptomycin, and 10% fetal calf serum at 37° C. in a humid chamber (Mediatech, Inc. Manassas, Va.). DU 145 cells were obtained from American Type Culture Collection (ATCC, Manassas, Va.) and grown in media following standard protocols. DU145 cells were grown to between 75 and 85% density and collected following standard protocols and counted using a modified Neubauer brightline hemacytometer and suspended at 400,000 cell/ml.
(§1) Peptides were dissolved in either phosphate buffered saline (PBS) or DMSO and then PBS to a maximum of 20% DMSO and a 2× solution was made and placed into complete medium. After being diluted to appropriate concentration, 50 μl was dispensed into a 96-well assay plate, either coated with laminin/entactin complex (50 μg/ml) or untreated (Black with clear bottom) (Corning Life Sciences, Corning, N.Y.), 50 μl of cells (20,000 cells/well), and were grown overnight. Cells then had 20 μl of CellTiter-Blue added ((Promega, Madison, Wis.)) and incubated for an additional 2 hours at 37° C. Cells were then read on a DTX-880 (Beckman Inc.) following standard fluorescent protocols with an integration time of 0.001 sec. To determine if caspase activity was induced, Caspase 3/7 activity was determined using ApoOne assay (Promega, Madison, Wis.). The data was exported to Excel and then to Prism 5.0 (GraphPad Software, Inc) where it was plotted, and analyzed for statistical differences between the background control (diluents used for the peptide) using a one-way ANOVA.

[1] = system: dendritic cells pulsed with recombinant human OFA/iLRP; assay: FACS binding of fluorescein-labeled 129 and 129-a peptides to dendritic cells pulsed with rHu OFA; assay type: cell-based; details: FITC-labeled peptide on dendritic cells pulsed with rHu OFA 100 ng/ml
Description: CD 14+ monocytes were grown in serum-free dendritic cell medium containing: 1000 IU/ml GM-CSF and 1000 IU/ml of IL-4 (Cell Genix Antioch, IL) at 1×10^6 cells per ml. The cells were pulsed with rHu OFA at 100 ng/ml for 36 hours. The pulsed dendritic cells were matured using serum-free dendritic cell medium containing: 10 ng/ml IL-1beta, 1000 IU/ml IL-6, and 5 ng/ml TNF-alpha with 1 μm prostaglandin E2 and matured for 2 days. At the end of two days, the cells were scraped from the plate and analyzed using flow cytometry analysis.
Briefly, the peptide that was labeled on a cysteine included allowing for conjugation using Fluorsceine-5-maledimide (Pierce/Thermo, Rockford, Ill.) following standard protocols. The unbound fluorsceine was removed using a standard dye-removal column (Pierce/Thermo, Rockford, Ill.). This cysteine can also be used to conjugate the peptides to a range of different products.
To determine if the maturation was successful, the cells were analyzed with CD14, CD83, CD80/86, and Class II MHC (HLA-DR) following standard protocols (R&D systems; Minneapolis, Minn.). Briefly, 0.5×10^5 cells per tube were suspended in 25 μl or phosphate buffered saline with 2% fetal calf serum. […] The cells were resuspended in 400 μl of PBS with 2% FCS and analyzed. If the cells could not be analyzed immediately, then they were fixed in 0.5% formaldehyde/PBS at 4° C. in the dark. […]

Caspase 3/7 = assay: ApoOne Caspase 3/7 assay; assay type: cell-based; details: DU145; data not shown
Description: as §1

T-cells = details: previously described epitope; cited from earlier work

Substance: TWEKLLLAARAIVAIENPAD [peptide 1]
- cell viability versus controls (DU145 cells; laminin/entactin coated plate (laminin)): no statistical difference
- cell viability versus controls (DU145 cells; uncoated plate (w/o laminin)): no statistical difference

Substance: Ac-CADHQPLTEASYVNLPT-amide (Ac-CADHQPLTEASYVNLPT-NH2) [129 peptide, start site 129]
- mean fluoresence intesity (MFI) [1]: 11,390+/−500.6

Substance: GRFTPGTFTNQIQAAFREP [peptide 2, start site 101]
- effect on cell viability (DU145 cells): significant effect
- effect on cell viability (DU145 cells; listed as Peptide 2): significantly different than the control
- decrease of cell viability (DU145 cells; versus control, p<0.05): over 2 fold
- Caspase 3/7 activity / induction of apoptosis (Caspase 3/7): no significant change

Substance: amino acids 49-60: peptide made against the previously described OFA/iLRP epitope (amino acids 49-60), Rohrer 2006 (INLKRTWEKLLL; UniProt P08865 49-60, looked up, fragment) [reference compound]
- effect on cell viability (DU145 cells): unable to affect cell viability; also recorded: did not affect cell viability
- T-cell proliferation (T-cells): able to proliferate T-cells
- Caspase 3/7 activity / induction of apoptosis (Caspase 3/7): unable to affect cell viability or induce apoptosis
